Results on four compounds are retold here after ChEMBL document CHEMBL1154256, “Inhibition of NF-kappaB activation and iNOS induction by ent-kaurane diterpenoids in LPS-stimulated RAW264.7 murine macrophages” (J Nat Prod, 2009).

Activity calls are given as the source filed them. No cut-off for these calls is given here.

Data set [1] has as its system RAW264.7. Put plainly: Inhibition of NF-kappaB activation in LPS-stimulated mouse RAW264.7 cells at 1 uM after 24 hrs by Western blotting. Type of data set: cell-based. A general note: In western blotting, separated proteins are transferred to a membrane and probed.
The nature of data set [2]: (§1) Cytotoxicity against mouse RAW264.7 cells assessed as cell viability at 10 uM after 24 hrs by MTT assay. The following applies: RAW264.7 cells, read-out: Activity. Type of data set: cell-based.
Data set [3] is described as follows: Inhibition of NF-kappaB activation in LPS-stimulated mouse RAW264.7 cells assessed as relative luciferase activity after 24 hrs by dual reporter gene assay. Type of data set: cell-based. Conditions: RAW264.7, 24 h. A general note: Reporter assays use an easily measured gene product as a stand-in for the process of interest.
In data set [4] the test system is RAW264.7. Put plainly: Inhibition of iNOS mRNA expression in LPS-stimulated mouse RAW264.7 cells at 5 uM after 8 hrs by RT-PCR. It counts as functional, cell-based.
The subject of data set [5] is RAW264.7. Put plainly: Cytotoxicity against mouse RAW264.7 cells after 24 hrs by MTT assay. Type of data set: cell-based. The following applies: RAW264.7, 24 h. Background: Formazan colour is commonly taken as a measure of viable cells.
Data set [6] has as its system RAW264.7. Kind of data set: Inhibition of NF-kappaB p65 subunit translocation into nucleus in LPS-stimulated mouse RAW264.7 cells assessed as p65 protein level at 1 uM pretreated for 1 hr before LPS challenge after 60 mins immunofluorescence microscopy. Type of data set: functional, cell-based.
Data set [7] has as its system RAW264.7. Kind of data set: Antiinflammatory activity against mouse RAW264.7 cells assessed as inhibition of LPS-induced nitrite accumulation after 24 hrs by Griess reagent method. Type of data set: functional, cell-based. The following applies: for IC50: RAW264.7, 24 h.
The subject of data set [8] is RAW264.7. Kind of data set: Inhibition of NF-kappaB p65 subunit translocation into nucleus in LPS-stimulated mouse RAW264.7 cells assessed as p65 protein level at 5 uM treated after LPS-stimulation for 24 hrs measured after 60 mins by Western blotting. It counts as functional, cell-based.
The subject of data set [9] is RAW264.7. Kind of data set: Antiinflammatory activity against mouse RAW264.7 cells assessed as inhibition of LPS-induced iNOS expression at 0.1 to 5 uM after 24 hrs by Western blotting. Type of data set: functional, cell-based.
Data set [10] in a line: (§2) Cytotoxicity against mouse RAW264.7 cells assessed as cell viability at 5 uM after 24 hrs by MTT assay. Type of data set: cell-based. The following applies: RAW264.7 cells, read-out: Activity.
For data set [11], the system named is RAW264.7. Described as §2. It counts as cell-based. The following applies: raw264.7, 24 h, 5 µM.
The nature of data set [12]: (§3) Cytotoxicity against mouse RAW264.7 cells assessed as cell viability at 25 uM after 24 hrs by MTT assay. Type of data set: cell-based. Conditions: RAW264.7 cells, read-out: Activity.
Data set [13] relates to RAW264.7. The data set is described as §3. It counts as cell-based. Conditions: raw264.7, 24 h, 25 µM.
For data set [14], the target named is T1, Inhibitor of nuclear factor kappa-B kinase subunit beta (Mus musculus) (UniProt O88351).
T1 sequence (whole entry): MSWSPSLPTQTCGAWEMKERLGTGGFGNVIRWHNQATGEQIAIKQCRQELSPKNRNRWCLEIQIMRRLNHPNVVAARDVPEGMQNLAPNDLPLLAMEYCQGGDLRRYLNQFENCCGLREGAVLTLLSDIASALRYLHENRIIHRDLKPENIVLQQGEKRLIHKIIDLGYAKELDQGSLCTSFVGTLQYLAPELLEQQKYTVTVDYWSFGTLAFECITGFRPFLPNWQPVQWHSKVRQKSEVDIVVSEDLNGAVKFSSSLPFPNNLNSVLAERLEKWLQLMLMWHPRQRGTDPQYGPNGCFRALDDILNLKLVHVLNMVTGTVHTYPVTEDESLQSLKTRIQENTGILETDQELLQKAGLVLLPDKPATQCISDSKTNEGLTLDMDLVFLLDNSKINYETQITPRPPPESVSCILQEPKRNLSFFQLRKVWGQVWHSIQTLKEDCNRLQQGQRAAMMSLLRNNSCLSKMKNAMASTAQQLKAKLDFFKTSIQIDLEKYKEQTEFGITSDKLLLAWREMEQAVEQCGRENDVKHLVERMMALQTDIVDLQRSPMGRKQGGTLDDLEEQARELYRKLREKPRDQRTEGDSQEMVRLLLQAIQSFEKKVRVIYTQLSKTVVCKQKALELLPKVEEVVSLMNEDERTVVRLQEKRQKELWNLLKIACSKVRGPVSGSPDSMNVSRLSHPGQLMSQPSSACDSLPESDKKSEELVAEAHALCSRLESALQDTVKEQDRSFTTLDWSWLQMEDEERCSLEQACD
Put plainly: Inhibition of LPS-stimulated IkappaB degradation in mouse RAW264.7 cells assessed as cellular IkappaB level at 5 uM treated after LPS-stimulation for 24 hrs measured after 60 mins by Western blotting. Type of data set: cell-based.

Data set [15] relates to RAW264.7. The description is as §1. The following applies: raw264.7, 24 h, 10 µM. Type of data set: cell-based.

In general, IC50 refers to the concentration needed to halve the response being measured. As to `C=C1C(=O)[C@@]23[C@@H]4O[C@H]5O[C@@]2(O)[C@@H](O)[C@@H]2C(C)(C)CCC[C@]52[C@@H]3CC[C@@H]14` [XEROPHILUSIN B], the inhibition entry with RAW264.7 [1], in the data set with RAW264.7 [4] and in the data set on RAW264.7 [9] was “Active” in each case. The viability at 24 h, 10 µM in data set [2] is > 97.5%. In addition, the IC50 was 0.7 µM in [3], 10.1 µM in the data set on RAW264.7 [5] and 0.225 µM in the data set with RAW264.7 [7]. Moreover, the result with RAW264.7 [6] and in the data set on RAW264.7 [8] was Active. The inhibition result in the data set on RAW264.7 [7] was “Dose-dependent effect”. In addition, in [10], the viability at 24 h, 5 µM is > 97.5%. In addition, the Activity result with RAW264.7 [11] was “Non-toxic”. Moreover, the viability at 24 h, 25 µM in data set [12] is > 97.5%.
`C=C1C(=O)[C@]23[C@H](O)[C@H]1C[C@H](OC(C)=O)[C@H]2[C@]12CCCC(C)(C)[C@H]1C(=O)[C@]3(O)[C@H]2O` [XEROPHILUSIN F]: in the data set with RAW264.7 [1], the inhibition result is “inactive”. Moreover, in [2], the viability at 24 h, 10 µM was > 97.5%. For the same compound, the IC50 in data set [3] came to 1.6 µM; in the data set with RAW264.7 [5], 52.4 µM; with RAW264.7 [7] it was 0.673 µM. The inhibition entry in the data set on RAW264.7 [4] and in the data set on RAW264.7 [9] was “Active” throughout. For the same compound, the result (in the data set on RAW264.7 [6]; in the data set with RAW264.7 [8]; in data set [14]) was Active. Further, the inhibition result in the data set on RAW264.7 [7] is “Dose-dependent effect”. Further, the viability at 24 h, 5 µM in data set [10] is > 97.5%. In data set [12], the viability at 24 h, 25 µM was > 97.5%. Besides, the Activity result with RAW264.7 [13] is “Non-toxic”.
For `C=C1C(=O)[C@]23[C@H](O)[C@H]1CC[C@H]2[C@]12CCC[C@@](C)(COC(C)=O)[C@H]1[C@H](O)[C@]3(O)OC2` [LONGIKAURIN B], the inhibition result with RAW264.7 [1], in the data set on RAW264.7 [4] and in the data set with RAW264.7 [9] was “Active” in each case. The viability at 24 h, 10 µM in data set [2] was > 97.5%. Further, the Activity entry in the data set on RAW264.7 [15] is recorded as “Non-toxic”. In addition, the results for the IC50 (in data set [3]; in the data set with RAW264.7 [5]; in the data set with RAW264.7 [7]) were 1.2 µM, 44.8 µM and 0.435 µM, respectively. The result in the data set with RAW264.7 [6] and in the data set on RAW264.7 [8] was Active. In addition, the inhibition result in the data set with RAW264.7 [7] is “Dose-dependent effect”. Further, the viability at 24 h, 5 µM in data set [10] is > 97.5%. Besides, in [12], the viability at 24 h, 25 µM was > 97.5%.
For the compound `C=C1C(=O)[C@@]23[C@@H]4O[C@H]5O[C@@]2(O)[C@@H](O)[C@@H]2C(C)(C)CCC[C@]52[C@@H]3[C@@H](OC(C)=O)C[C@@H]14` [XEROPHILUSIN A], the inhibition result with RAW264.7 [1], with RAW264.7 [4] and in the data set with RAW264.7 [9] was “Active” in each case. Further, the viability at 24 h, 10 µM in [2] was > 97.5%. Moreover, the IC50 in data set [3] stood at 1.8 µM; in the data set on RAW264.7 [5], 11.3 µM; in the data set on RAW264.7 [7], 0.6 µM. Moreover, the result in the data set on RAW264.7 [6] and in the data set with RAW264.7 [8] was Active. In the data set on RAW264.7 [7], the inhibition result was “Dose-dependent effect”. Further, the viability at 24 h, 5 µM in data set [10] is > 97.5%. For the same compound, the Activity result with RAW264.7 [11] is “Non-toxic”. In data set [12], the viability at 24 h, 25 µM is > 97.5%.
